# Values of other authors in patent EP2743282B1, “Melamine-aldehyde-condensation product and method obtaining the same” (Borealis Agrolinz Melamine GmbH, priority 2012, dated 2014).
# Settings: in water at 20 °C
row,water solubility,Compound
1,49000 µg/mL,"CNc1nc(NC)nc(N(C)C)n1 [N,N,N',N""-tetramethylmelamine, reference compound]"
2,400 µg/mL,"CN(C)c1nc(N)nc(N(C)C)n1 [N,N,N',N'-tetramethylmelamine]"
3,1200 µg/mL,"CN(C)c1nc(N)nc(N)n1 [N,N-dimethylmelamine]"
